Data reported in US20240082221A1, “COMPOSITIONS AND METHODS FOR THE IDENTIFICATION OF COMPOUNDS THAT PROTECT AGAINST LIPOFUSCIN CYTOTOXICITY” (priority 2021, published 2024).

System: LLO-induced atypical necroptosis
Assay: LLO-induced atypical necroptosis, protection assay
Type: cell-based

Compound	protection against LLO-induced atypical necroptosis
N=C1S/C(=C\c2cn[nH]c2-c2ccc(F)cc2)C(=O)N1c1nccs1 [Nec7, Necrostatin 7]	preventable
[O-][n+]1cccc(/C(Cl)=N/OC[C@H](O)CN2CCCCC2)c1 [arimoclomol]	preventable
